One assay concerns the target T1, M4 muscarinic receptor (Homo sapiens, UniProt P08173).
T1 construct: expressed in transfected cells; host or cells: CHO (M4-CHO)
T1 sequence (P08173 1-479): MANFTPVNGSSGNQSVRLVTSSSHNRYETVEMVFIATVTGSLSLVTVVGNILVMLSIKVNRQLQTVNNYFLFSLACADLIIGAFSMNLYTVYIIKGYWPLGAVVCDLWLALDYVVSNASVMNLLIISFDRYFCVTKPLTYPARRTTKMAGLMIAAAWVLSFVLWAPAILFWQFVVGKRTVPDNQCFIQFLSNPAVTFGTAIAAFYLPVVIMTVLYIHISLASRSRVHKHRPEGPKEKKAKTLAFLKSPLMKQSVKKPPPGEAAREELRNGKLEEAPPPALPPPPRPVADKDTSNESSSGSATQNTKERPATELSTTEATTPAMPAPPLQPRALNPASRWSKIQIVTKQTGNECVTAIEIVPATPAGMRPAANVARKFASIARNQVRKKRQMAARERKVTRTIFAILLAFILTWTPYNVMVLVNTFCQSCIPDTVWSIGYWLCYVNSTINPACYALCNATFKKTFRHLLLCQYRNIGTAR
Description: Functional mobilization of intracellular calcium (FLIPR) in M4-CHO cells. The class given is cell-based. As to conditions: for Emax: read-out: M4 Efficacy. The procedure, abridged:
(§1)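 Two modes: direct compound addition for agonism, or 15 min compound pre-incubation (or co-application) before carbachol at EC80 for inhibition. Calcium signal from Fluo-3 AM or Calcium 3 dye in CHO cells, 1 mM probenecid, pH 7.4, read 60 sec at 488/540 nm; DMSO 0.5% final.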

Another assay addresses T2, M1 muscarinic receptor (Homo sapiens, UniProt P11229).
T2 construct: expressed in transfected cells; host or cells: CHO (M1-CHO)
T2 sequence (P11229 1-460): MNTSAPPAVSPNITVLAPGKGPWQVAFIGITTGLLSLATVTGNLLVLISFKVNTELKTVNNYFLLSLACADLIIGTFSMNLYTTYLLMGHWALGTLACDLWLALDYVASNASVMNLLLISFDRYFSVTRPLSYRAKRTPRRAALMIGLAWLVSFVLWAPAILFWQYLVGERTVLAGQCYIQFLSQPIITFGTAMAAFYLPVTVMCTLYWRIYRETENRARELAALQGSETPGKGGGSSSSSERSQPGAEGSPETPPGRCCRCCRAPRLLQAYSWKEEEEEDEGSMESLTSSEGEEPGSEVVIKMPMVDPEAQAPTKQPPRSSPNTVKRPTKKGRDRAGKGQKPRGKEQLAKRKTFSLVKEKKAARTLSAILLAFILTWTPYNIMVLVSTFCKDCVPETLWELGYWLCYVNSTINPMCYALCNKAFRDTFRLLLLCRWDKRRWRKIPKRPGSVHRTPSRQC
Description: Functional mobilization of intracellular calcium (FLIPR) in M1-CHO cells. The settings on record: for Emax: read-out: M1 Efficacy. In kind it is cell-based. The essentials:
as §1
For orientation: A change in cytosolic calcium serves as a functional read-out for many receptors and channels.

Setting [1] is: M4 receptor, calcium mobilization.
Where [2] appears, read: M1 receptor, calcium mobilization.
Where [3] appears, read: M4-CHO cells, calcium mobilization (FLIPR).
Where [4] appears, read: M1-CHO cells, calcium mobilization (FLIPR).

Structures are written as SMILES. Like-named read-outs stand apart in the source and are kept apart here.

For orientation: EC50 means the concentration at which the effect is half-maximal.

Turning to `CN([C@H]1CC2(CCN(C[C@H]3C[C@H]4CC[C@H]3C4)CC2)c2ccccc21)S(C)(=O)=O` [compound 357], on M4 muscarinic receptor (setting [1]), the “M4 Activity” value was “x (activity was measured to be greater than 1.0 μM)” and the Emax is less than 65%. Besides, on M1 muscarinic receptor (setting [2]), the “M1 Activity” value was “xx (activity was measured to be between 0.1 μM and 1.0 μM)”; the Emax was less than 65%.

Turning to `CC(=O)N[C@H]1CC2(CCN(C3CCC[C@@H](C)C3)CC2)c2ccccc21` (stereo partly shown) [compound 358], on M4 muscarinic receptor (setting [1]), the “M4 Activity” value was “xx (activity was measured to be between 0.1 μM and 1.0 μM)”; the Emax is 65 to 85%. At M1 muscarinic receptor (setting [2]), the “M1 Activity” value was “xxx (activity was measured to be less than 0.1 μM)” and the Emax lay in the range of 65 to 85%.

Consider `CCOC(=O)N1C2CCC1CC(N1CCC3(CC1)C[C@H](NC(C)=O)c1ccccc13)C2` (stereo partly shown) [compound 359], for which, at M4 muscarinic receptor (setting [1]), the “M4 Activity” value was “xx (activity was measured to be between 0.1 μM and 1.0 μM)”; the Emax was less than 65%. Also, on M1 muscarinic receptor (setting [2]), the “M1 Activity” value was “xx (activity was measured to be between 0.1 μM and 1.0 μM)”; the Emax was less than 65%.

Turning to `CCCOC(=O)N1C2CCC1CC(N1CCC3(CC1)CN(C(=O)N(C)C)c1ccc(F)cc13)C2` (stereo not shown) [compound 360], on M4 muscarinic receptor (setting [1]), the “M4 Activity” value is given as “x (activity was measured to be greater than 1.0 μM)” and the Emax is less than 65%. In addition, at M1 muscarinic receptor (setting [2]), the “M1 Activity” value was “xx (activity was measured to be between 0.1 μM and 1.0 μM)”; the Emax lay within 65 to 85%.

For the compound `CC(C)OC(=O)N1C2CCC1CC(N1CCC3(CC1)CN(C(=O)O[C@@H]1CCOC1)c1ccc(F)cc13)C2` (stereo partly shown) [compound 361], on M4 muscarinic receptor (setting [1]), the “M4 Activity” value is listed as “x (activity was measured to be greater than 1.0 μM)” and the Emax was less than 65%. For the same compound, at M1 muscarinic receptor (setting [2]), the “M1 Activity” value was “xx (activity was measured to be between 0.1 μM and 1.0 μM)”; the Emax was less than 65%.

On to `CCOC(=O)N1C2CCC1CC(N1CCC3(CC1)CN(C(=O)N(C)C)c1ccc(F)cc13)C2` (stereo not shown) [compound 362], for which, on M4 muscarinic receptor (setting [1]), the “M4 Activity” value was “x (activity was measured to be greater than 1.0 μM)” and the Emax was less than 65%. At M1 muscarinic receptor (setting [2]), the “M1 Activity” value was “xx (activity was measured to be between 0.1 μM and 1.0 μM)”; the Emax was 65 to 85%.

Consider `O=C(OCC1CCCO1)N1C2CCC1CC(N1CCC3(CC1)COc1ccc(F)cc13)C2` (stereo not shown) [compound 363], for which, at M4 muscarinic receptor (setting [1]), the “M4 Activity” value is listed as “x (activity was measured to be greater than 1.0 μM)” and the Emax is less than 65%. Moreover, on M1 muscarinic receptor (setting [2]), the “M1 Activity” value was “xx (activity was measured to be between 0.1 μM and 1.0 μM)”; the Emax is less than 65%.

In the case of `C#CCOC(=O)N1CCC(CN2CCC3(CC2)C[C@H](NC(C)=O)c2ccccc23)CC1` [compound 364], at M4 muscarinic receptor (setting [1]), the “M4 Activity” value is recorded as “x (activity was measured to be greater than 1.0 μM)” and the Emax is less than 65%. On M1 muscarinic receptor (setting [2]), the “M1 Activity” value is “xxx (activity was measured to be less than 0.1 μM)” and the Emax is more than 85%.

Regarding `CCOC(=O)N1C2CCC1CC(N1CCC3(CCc4ccccc43)CC1)C2` (stereo not shown) [compound 365], at M4 muscarinic receptor (setting [1]), the “M4 Activity” value is listed as “x (activity was measured to be greater than 1.0 μM)” and the Emax was less than 65%. For the same compound, at M1 muscarinic receptor (setting [2]), the “M1 Activity” value was “xxx (activity was measured to be less than 0.1 μM)” and the Emax was in the range of 65 to 85%.

For `CC(=O)N1CC2(CCN(CC3CC4CCC3CC4)CC2)c2cc(F)ccc21` (stereo not shown) [compound 366], on M4 muscarinic receptor (setting [1]), the “M4 Activity” value is listed as “x (activity was measured to be greater than 1.0 μM)” and the Emax was less than 65%. Moreover, on M1 muscarinic receptor (setting [2]), the “M1 Activity” value is “xx (activity was measured to be between 0.1 μM and 1.0 μM)”; the Emax was less than 65%.

With `CCC1CCC(N2CCC3(CC2)C[C@H](NC(C)=O)c2ccccc23)CC1` (stereo partly shown) [compound 367], on M4 muscarinic receptor (setting [1]), the “M4 Activity” value is “x (activity was measured to be greater than 1.0 μM)” and the Emax was less than 65%. Moreover, on M1 muscarinic receptor (setting [2]), the “M1 Activity” value is recorded as “x (activity was measured to be greater than 1.0 μM)” and the Emax was less than 65%.

For the compound `CCOC(=O)N1C2CCC1CC(CN1CCC3(CC1)CNc1ccc(F)cc13)C2` (stereo not shown) [compound 368], on M4 muscarinic receptor (setting [1]), the “M4 Activity” value is “xx (activity was measured to be between 0.1 μM and 1.0 μM)”; the Emax is less than 65%. For the same compound, at M1 muscarinic receptor (setting [2]), the “M1 Activity” value is given as “xxx (activity was measured to be less than 0.1 μM)” and the Emax is less than 65%.

Regarding `Clc1ccc2c(c1)C1(CCO2)CCN([C@@H]2C[C@@H]3CC[C@H]2C3)CC1` [compound 369], on M4 muscarinic receptor (setting [1]), the “M4 Activity” value is “xx (activity was measured to be between 0.1 μM and 1.0 μM)”; the Emax was more than 85%. Also, at M1 muscarinic receptor (setting [2]), the “M1 Activity” value was “xxx (activity was measured to be less than 0.1 μM)” and the Emax is more than 85%.

`CCOC(=O)N1CCC(N2CCC3(CC2)CN(C(=O)OCCF)c2ccc(F)cc23)CC1` [compound 370]: on M4 muscarinic receptor (setting [1]), the “M4 Activity” value was “xx (activity was measured to be between 0.1 μM and 1.0 μM)”; the Emax is more than 85%. At M1 muscarinic receptor (setting [2]), the “M1 Activity” value is listed as “xxx (activity was measured to be less than 0.1 μM)” and the Emax lay in the range of 65 to 85%.

On to `CCOC(=O)N1C2CCC1CC(N1CCC3(CC1)CN(C(C)=O)c1ccc(F)cc13)C2` (stereo not shown) [compound 371], for which, at M4 muscarinic receptor (setting [1]), the “M4 Activity” value was “x (activity was measured to be greater than 1.0 μM)” and the Emax was more than 85%. In addition, on M1 muscarinic receptor (setting [2]), the “M1 Activity” value is on record as “xxx (activity was measured to be less than 0.1 μM)” and the Emax was in the range of 65 to 85%.

For `Cc1ccc2c(c1)C1(CCN(CC3CC4CCC3O4)CC1)CN2` (stereo not shown) [compound 372], at M4 muscarinic receptor (setting [1]), the “M4 Activity” value is “xx (activity was measured to be between 0.1 μM and 1.0 μM)”; the Emax is more than 85%. In addition, on M1 muscarinic receptor (setting [2]), the “M1 Activity” value is listed as “xxx (activity was measured to be less than 0.1 μM)” and the Emax lay in the range of 65 to 85%.

On to `CCOC(=O)N1CCC(N2CCC3(CC2)CN(C(C)=O)c2ccc(-c4cccc(C#N)c4)cc23)CC1` [compound 373], for which, at M4 muscarinic receptor (setting [1]), the “M4 Activity” value is “xx (activity was measured to be between 0.1 μM and 1.0 μM)”; the Emax was more than 85%. At M1 muscarinic receptor (setting [2]), the “M1 Activity” value is recorded as “xxx (activity was measured to be less than 0.1 μM)” and the Emax was 65 to 85%.

`COC(=O)N1CCC(N2CCC3(CC2)CN(C(C)=O)c2ccc(F)cc23)CC1` [compound 374]: on M4 muscarinic receptor (setting [1]), the “M4 Activity” value is given as “x (activity was measured to be greater than 1.0 μM)” and the Emax lay within 65 to 85%. In addition, at M1 muscarinic receptor (setting [2]), the “M1 Activity” value is “xx (activity was measured to be between 0.1 μM and 1.0 μM)”; the Emax lay in the range of 65 to 85%.

For the compound `c1ccc2c(c1)NCC21CCN(C2CCCCC2)CC1` [compound 375], at M4 muscarinic receptor (setting [3]), the EC50 is less than 100 nM and the Emax was 65 to 85%. Besides, at M1 muscarinic receptor (setting [4]), the EC50 is less than 100 nM and the Emax is more than 85%.

As to `Fc1ccc2c(c1)C1(CCN(C[C@H]3C[C@H]4C=C[C@H]3C4)CC1)CO2` [compound 376], at M4 muscarinic receptor (setting [3]), the EC50 was more than 1000 nM and the Emax lay within 65 to 85%. Also, on M1 muscarinic receptor (setting [4]), the EC50 was less than 100 nM and the Emax was in the range of 65 to 85%.

In the case of `Fc1ccc2c(c1)C1(CCN(C3CC4CCC(C4)C3)CC1)CN2` (stereo not shown) [compound 377], at M4 muscarinic receptor (setting [3]), the concentration giving a half-maximal response (EC50) fell in the range of 100 to 1000 nM and the Emax lay within 65 to 85%. Further, on M1 muscarinic receptor (setting [4]), the EC50 was less than 100 nM and the Emax was 65 to 85%.

For the compound `COCCOC(=O)N1C2CCC1CC(N1CCC3(CC1)COc1ccc(F)cc13)C2` (stereo not shown) [compound 378], on M4 muscarinic receptor (setting [3]), the EC50 is more than 1000 nM and the Emax lay in the range of 65 to 85%. For the same compound, on M1 muscarinic receptor (setting [4]), the EC50 was 100 to 1000 nM and the Emax is 65 to 85%.

As for `O=C(C1CC1)N1CC2(CCN(C3CC4CCC(C3)N4C(=O)OC3CCC3)CC2)c2cc(F)ccc21` (stereo not shown) [compound 379], the figures for the EC50 at M4 muscarinic receptor (setting [3]) and at M1 muscarinic receptor (setting [4]) were 100 to 1000 nM and less than 100 nM, respectively. Moreover, the Emax on M4 muscarinic receptor (setting [3]) and at M1 muscarinic receptor (setting [4]) was 65 to 85% throughout.

With `CC(=O)N1CC2(CCN(C3CCN(C(=O)OC(C)C)CC3)CC2)c2cc(C)ccc21` [compound 380], on M4 muscarinic receptor (setting [3]), the EC50 lay in the range of 100 to 1000 nM and the Emax fell in the range of 65 to 85%. At M1 muscarinic receptor (setting [4]), the EC50 was less than 100 nM and the Emax lay in the range of 65 to 85%.

As to `CCOC(=O)N1CCC(N2CCC3(CC2)CN(C(C)=O)c2c(F)cccc23)CC1` [compound 381], the EC50 was more than 1000 nM at M4 muscarinic receptor (setting [3]) and less than 100 nM at M1 muscarinic receptor (setting [4]). Besides, the Emax was less than 65% on M4 muscarinic receptor (setting [3]) and 65 to 85% at M1 muscarinic receptor (setting [4]).

(Values after patent US7786141B2 (Vertex Pharmaceuticals Incorporated, priority 2004, dated 2010).)
